Reference: publication PMC3388095, “Fluorophore Labeled Kinase Detects Ligands That Bind within the MAPK Insert of p38α Kinase” (PLoS ONE, 2012)

How the values were obtained:
Test in all cases: Kinase selectivity profile, 33P-ATP filter-binding assay
Assay type in all cases: biochemical
[1] = biological target: MARK4 (Homo sapiens, UniProt Q96L34)
Outline: (§1)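 Percent kinase activity left in the presence of 10 µM compound, measured by radiometric 33P-ATP filter binding across 95 kinases.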

[2] = biological target: MST2 (Homo sapiens, UniProt Q13188)
Outline: as §1

[3] = biological target: IKKβ (Homo sapiens, UniProt O14920)
Outline: as §1

[4] = biological target: NEK2α (Homo sapiens, UniProt P51955)
Outline: as §1

[5] = biological target: PKBβ (Homo sapiens, UniProt P31751)
Outline: as §1

[6] = biological target: PRAK (Homo sapiens, UniProt Q8IW41)
Outline: as §1

[7] = biological target: EPH-B3 (Homo sapiens, UniProt P54753)
Outline: as §1

[8] = biological target: MARK2 (Homo sapiens, UniProt Q7KZI7)
Outline: as §1

[9] = biological target: BTK (Homo sapiens, UniProt Q06187)
Outline: as §1

[10] = biological target: MLK1 (Homo sapiens, UniProt P80192)
Outline: as §1

[11] = biological target: RSK1 (Homo sapiens, UniProt Q15418)
Outline: as §1

[12] = biological target: NEK6 (Homo sapiens, UniProt Q9HC98)
Outline: as §1

[13] = biological target: CAMK1 (Homo sapiens, UniProt Q14012)
Outline: as §1

[14] = biological target: RSK2 (Homo sapiens, UniProt P51812)
Outline: as §1

[15] = biological target: PAK5 (Homo sapiens, UniProt Q9P286)
Outline: as §1

[16] = biological target: MINK1 (Homo sapiens, UniProt Q8N4C8)
Outline: as §1

[17] = biological target: CHK2 (Homo sapiens, UniProt O96017)
Outline: as §1

[18] = biological target: Aurora B (Homo sapiens, UniProt Q96GD4)
Outline: as §1

[19] = biological target: CHK1 (Homo sapiens, UniProt O14757)
Outline: as §1

[20] = biological target: EF2K (Homo sapiens, UniProt O00418)
Outline: as §1

[21] = biological target: SGK1 (Homo sapiens, UniProt O00141)
Outline: as §1

[22] = biological target: PAK2 (Homo sapiens, UniProt Q13177)
Outline: as §1

[23] = biological target: SmMLCK (Homo sapiens, UniProt Q15746)
Outline: as §1

[24] = biological target: MARK3 (Homo sapiens, UniProt P27448)
Outline: as §1

[25] = biological target: p38α MAPK (Homo sapiens, UniProt Q16539)
Outline: as §1

[26] = biological target: MSK1 (Homo sapiens, UniProt O75582)
Outline: as §1

[27] = biological target: S6K1 (Homo sapiens, UniProt P23443)
Outline: as §1

MINK1, sequence (Q8N4C8 whole entry): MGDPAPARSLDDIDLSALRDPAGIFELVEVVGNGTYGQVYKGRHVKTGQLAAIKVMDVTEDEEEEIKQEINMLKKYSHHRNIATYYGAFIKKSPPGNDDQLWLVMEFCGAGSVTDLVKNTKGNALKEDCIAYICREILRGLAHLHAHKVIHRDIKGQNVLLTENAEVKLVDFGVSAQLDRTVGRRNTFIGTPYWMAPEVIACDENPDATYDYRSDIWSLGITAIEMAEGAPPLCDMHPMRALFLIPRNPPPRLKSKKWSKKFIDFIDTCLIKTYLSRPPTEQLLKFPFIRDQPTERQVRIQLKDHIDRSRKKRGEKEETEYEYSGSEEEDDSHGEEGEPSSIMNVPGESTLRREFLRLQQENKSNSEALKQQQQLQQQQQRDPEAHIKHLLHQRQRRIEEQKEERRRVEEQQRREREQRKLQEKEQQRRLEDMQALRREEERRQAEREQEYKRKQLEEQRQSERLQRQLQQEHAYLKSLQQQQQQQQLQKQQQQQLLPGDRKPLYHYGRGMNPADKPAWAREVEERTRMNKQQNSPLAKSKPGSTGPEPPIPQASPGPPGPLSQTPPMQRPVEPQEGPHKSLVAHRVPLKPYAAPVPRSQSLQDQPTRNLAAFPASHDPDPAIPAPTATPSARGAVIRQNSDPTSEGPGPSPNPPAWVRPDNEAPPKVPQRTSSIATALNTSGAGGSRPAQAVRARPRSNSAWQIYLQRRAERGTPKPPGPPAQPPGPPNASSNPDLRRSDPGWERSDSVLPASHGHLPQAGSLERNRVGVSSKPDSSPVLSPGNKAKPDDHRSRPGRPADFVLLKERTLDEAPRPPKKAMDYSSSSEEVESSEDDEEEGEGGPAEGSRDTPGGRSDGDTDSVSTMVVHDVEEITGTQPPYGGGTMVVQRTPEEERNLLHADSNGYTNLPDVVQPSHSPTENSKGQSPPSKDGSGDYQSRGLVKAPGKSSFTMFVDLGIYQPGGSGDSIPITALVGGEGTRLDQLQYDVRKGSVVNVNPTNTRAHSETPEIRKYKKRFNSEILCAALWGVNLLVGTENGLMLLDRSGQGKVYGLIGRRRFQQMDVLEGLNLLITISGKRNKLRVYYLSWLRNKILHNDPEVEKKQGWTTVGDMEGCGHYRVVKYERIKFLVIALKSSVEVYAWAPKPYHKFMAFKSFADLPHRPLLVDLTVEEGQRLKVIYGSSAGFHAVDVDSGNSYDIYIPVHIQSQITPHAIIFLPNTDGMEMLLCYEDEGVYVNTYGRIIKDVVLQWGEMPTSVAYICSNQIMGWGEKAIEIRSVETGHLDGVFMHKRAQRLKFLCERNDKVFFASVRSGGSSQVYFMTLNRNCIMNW
PRAK, sequence (Q8IW41 whole entry): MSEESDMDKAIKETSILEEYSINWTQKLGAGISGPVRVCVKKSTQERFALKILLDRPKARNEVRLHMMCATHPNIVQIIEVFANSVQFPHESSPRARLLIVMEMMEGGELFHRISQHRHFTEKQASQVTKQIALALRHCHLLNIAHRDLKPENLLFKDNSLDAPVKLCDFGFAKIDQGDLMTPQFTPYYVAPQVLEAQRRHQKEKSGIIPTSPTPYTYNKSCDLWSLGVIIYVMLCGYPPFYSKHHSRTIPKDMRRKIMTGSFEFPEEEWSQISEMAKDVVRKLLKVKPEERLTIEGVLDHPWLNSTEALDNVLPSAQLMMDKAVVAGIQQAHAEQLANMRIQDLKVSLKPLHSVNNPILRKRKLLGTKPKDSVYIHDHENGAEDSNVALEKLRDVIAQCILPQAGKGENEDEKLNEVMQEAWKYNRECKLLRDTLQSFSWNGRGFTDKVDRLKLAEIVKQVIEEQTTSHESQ
IKKβ, sequence (O14920 whole entry): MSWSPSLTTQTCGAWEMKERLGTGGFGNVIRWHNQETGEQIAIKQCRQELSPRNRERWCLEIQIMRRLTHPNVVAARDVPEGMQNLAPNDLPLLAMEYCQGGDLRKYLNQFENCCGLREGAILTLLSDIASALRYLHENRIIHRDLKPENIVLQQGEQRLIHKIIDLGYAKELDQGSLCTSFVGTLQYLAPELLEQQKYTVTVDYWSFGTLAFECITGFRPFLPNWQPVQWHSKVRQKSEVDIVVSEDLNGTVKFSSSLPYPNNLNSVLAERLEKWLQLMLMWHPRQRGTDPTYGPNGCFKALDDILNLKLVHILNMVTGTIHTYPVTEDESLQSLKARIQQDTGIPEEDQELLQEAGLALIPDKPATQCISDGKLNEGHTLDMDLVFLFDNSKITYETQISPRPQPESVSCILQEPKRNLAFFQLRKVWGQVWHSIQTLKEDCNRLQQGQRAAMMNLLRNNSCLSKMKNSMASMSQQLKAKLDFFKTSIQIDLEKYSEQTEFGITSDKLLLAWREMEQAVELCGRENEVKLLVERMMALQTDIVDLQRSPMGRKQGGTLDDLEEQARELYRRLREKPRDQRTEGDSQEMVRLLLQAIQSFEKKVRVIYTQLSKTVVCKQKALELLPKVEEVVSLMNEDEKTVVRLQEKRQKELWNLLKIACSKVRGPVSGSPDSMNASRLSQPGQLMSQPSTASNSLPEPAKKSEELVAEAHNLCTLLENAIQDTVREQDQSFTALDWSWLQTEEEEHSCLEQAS
RSK1, sequence (Q15418 whole entry): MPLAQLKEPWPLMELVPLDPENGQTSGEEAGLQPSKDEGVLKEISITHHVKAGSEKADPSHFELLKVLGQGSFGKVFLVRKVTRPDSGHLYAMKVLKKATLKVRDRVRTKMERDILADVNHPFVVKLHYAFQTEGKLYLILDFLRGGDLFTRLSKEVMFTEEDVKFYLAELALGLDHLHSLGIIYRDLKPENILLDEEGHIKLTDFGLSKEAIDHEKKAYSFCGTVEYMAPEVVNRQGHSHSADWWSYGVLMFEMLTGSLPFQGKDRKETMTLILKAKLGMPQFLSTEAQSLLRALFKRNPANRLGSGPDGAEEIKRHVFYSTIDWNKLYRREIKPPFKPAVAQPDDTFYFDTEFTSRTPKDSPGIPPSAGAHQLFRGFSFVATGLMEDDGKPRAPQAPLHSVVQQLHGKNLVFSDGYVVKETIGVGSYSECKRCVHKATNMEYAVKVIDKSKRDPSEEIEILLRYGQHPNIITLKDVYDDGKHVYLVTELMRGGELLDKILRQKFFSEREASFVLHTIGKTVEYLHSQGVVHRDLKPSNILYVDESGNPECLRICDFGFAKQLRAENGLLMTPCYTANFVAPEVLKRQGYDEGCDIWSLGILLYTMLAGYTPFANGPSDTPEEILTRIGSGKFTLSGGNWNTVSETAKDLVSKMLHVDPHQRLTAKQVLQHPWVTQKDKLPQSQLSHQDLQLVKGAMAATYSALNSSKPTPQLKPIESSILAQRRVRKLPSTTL
MARK3, sequence (P27448 whole entry): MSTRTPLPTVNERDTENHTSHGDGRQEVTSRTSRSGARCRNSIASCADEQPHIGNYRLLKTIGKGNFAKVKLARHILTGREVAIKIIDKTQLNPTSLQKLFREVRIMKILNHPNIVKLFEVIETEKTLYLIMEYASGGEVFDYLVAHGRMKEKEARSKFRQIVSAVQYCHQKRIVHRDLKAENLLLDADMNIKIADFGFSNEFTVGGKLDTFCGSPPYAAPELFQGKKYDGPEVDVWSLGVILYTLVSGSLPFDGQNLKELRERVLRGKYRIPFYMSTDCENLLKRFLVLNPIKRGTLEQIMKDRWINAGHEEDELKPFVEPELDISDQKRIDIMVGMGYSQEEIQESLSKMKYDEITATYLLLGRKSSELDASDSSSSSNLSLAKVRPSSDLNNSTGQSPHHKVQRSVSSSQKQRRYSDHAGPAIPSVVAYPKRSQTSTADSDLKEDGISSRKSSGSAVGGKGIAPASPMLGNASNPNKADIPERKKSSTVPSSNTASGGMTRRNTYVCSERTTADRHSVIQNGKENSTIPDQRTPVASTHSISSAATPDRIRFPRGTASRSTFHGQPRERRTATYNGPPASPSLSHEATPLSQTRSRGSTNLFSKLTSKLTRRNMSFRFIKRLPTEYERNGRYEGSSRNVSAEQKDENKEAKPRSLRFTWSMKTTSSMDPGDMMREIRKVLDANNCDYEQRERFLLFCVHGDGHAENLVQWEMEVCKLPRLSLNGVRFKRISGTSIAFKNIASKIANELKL
BTK, sequence (Q06187 whole entry): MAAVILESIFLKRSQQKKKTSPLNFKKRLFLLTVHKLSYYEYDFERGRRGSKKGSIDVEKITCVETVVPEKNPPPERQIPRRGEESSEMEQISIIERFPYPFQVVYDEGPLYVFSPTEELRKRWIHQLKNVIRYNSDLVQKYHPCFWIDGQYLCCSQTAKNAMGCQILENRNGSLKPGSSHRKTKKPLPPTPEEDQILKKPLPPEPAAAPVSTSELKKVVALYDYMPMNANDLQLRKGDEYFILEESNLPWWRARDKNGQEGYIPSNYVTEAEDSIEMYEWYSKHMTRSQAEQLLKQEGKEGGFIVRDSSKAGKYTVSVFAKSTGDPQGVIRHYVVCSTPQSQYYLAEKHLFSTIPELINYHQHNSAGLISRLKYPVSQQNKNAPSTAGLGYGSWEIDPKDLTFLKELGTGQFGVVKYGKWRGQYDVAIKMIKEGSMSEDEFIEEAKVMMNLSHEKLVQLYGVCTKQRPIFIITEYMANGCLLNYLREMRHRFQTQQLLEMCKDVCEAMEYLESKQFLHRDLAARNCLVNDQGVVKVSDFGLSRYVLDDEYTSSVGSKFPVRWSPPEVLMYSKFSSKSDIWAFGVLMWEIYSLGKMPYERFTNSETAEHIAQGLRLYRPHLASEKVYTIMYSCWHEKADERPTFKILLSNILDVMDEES
p38α MAPK, sequence (Q16539 whole entry): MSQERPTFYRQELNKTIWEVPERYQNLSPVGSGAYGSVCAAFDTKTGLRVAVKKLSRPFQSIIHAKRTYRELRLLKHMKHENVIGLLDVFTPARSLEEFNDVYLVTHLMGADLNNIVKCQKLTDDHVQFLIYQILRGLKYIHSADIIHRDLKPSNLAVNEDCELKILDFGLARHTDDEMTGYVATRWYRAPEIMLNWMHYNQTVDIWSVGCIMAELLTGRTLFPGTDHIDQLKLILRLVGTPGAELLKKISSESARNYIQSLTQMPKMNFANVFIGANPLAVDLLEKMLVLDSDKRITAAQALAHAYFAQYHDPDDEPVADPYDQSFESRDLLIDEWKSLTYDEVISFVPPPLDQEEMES

For `Nc1ccc2c(NC3CC3)nc(-c3ccccc3)nc2c1` [1b, N^4-Cyclopropyl-2-phenyl-4,7-quinazolinediamine], the remaining activity at 10 µM [1] was 93%, the remaining activity at 10 µM [2] was 87% and the remaining activity at 10 µM [3] was 97%. The remaining activity at 10 µM [4] was 119%, the remaining activity at 10 µM [5] was 75% and the remaining activity at 10 µM [6] was 91%. It also gave a remaining activity at 10 µM [7] of 112%, a remaining activity at 10 µM [8] of 100% and a remaining activity at 10 µM [9] of 87%. The remaining activity at 10 µM [10] was 92%, the remaining activity at 10 µM [11] was 97% and the remaining activity at 10 µM [12] was 105%. It also gave a remaining activity at 10 µM [13] of 86%, a remaining activity at 10 µM [14] of 98% and a remaining activity at 10 µM [15] of 88%. For the same molecule, the remaining activity at 10 µM [16] was 69%, the remaining activity at 10 µM [17] was 78% and the remaining activity at 10 µM [18] was 53%. The remaining activity at 10 µM [19] was 93%, the remaining activity at 10 µM [20] was 102% and the remaining activity at 10 µM [21] was 92%. The remaining activity at 10 µM [22] was 90%, the remaining activity at 10 µM [23] was 83% and the remaining activity at 10 µM [24] was 99%. The remaining activity at 10 µM [25] was 88%, the remaining activity at 10 µM [26] was 96% and the remaining activity at 10 µM [27] was 96%.
